Measurements taken from PubChem BioAssay AID2060495 (Molecular Pharmacology Branch, DTP, NCI, 2025).

Test system: 521955-158-R2-J5-PDC complex spheroid viability
Experiment: Anticancer human tumor 521955-158-R2-J5-PDC patient-derived pancreatic carcinoma cell line growth inhibition [GQUAD]
Details: for IC50: curve of first compound; for viability, T/C: stronger effect = lower value
Summary of the method: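 Multi-cell-type spheroids of tumor cells with HUVEC and mesenchymal stem cells, treated with drug combinations. Concentrations descend in half-log steps from near clinical Cmax, or from 10 microM where Cmax is unknown; viability read-out.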

[1] = second compound 0.0316 µM, first compound 0.0316 µM
[2] = second compound 0.0316 µM, first compound 0.1 µM
[3] = second compound 0.0316 µM, first compound 0.316 µM
[4] = second compound 0.0316 µM, first compound 1 µM
[5] = second compound 0.0316 µM, first compound 3.16 µM
[6] = second compound 0.0316 µM, first compound 10 µM
[7] = second compound 0.1 µM, first compound 0.0316 µM
[8] = second compound 0.1 µM, first compound 0.1 µM
[9] = second compound 0.1 µM, first compound 0.316 µM
[10] = second compound 0.1 µM, first compound 1 µM
[11] = second compound 0.1 µM, first compound 3.16 µM
[12] = second compound 0.1 µM, first compound 10 µM
[13] = second compound 0.316 µM, first compound 0.0316 µM
[14] = second compound 0.316 µM, first compound 0.1 µM
[15] = second compound 0.316 µM, first compound 0.316 µM
[16] = second compound 0.316 µM, first compound 1 µM
[17] = second compound 0.316 µM, first compound 3.16 µM
[18] = second compound 0.316 µM, first compound 10 µM
[19] = second compound 1 µM, first compound 0.0316 µM
[20] = second compound 1 µM, first compound 0.1 µM
[21] = second compound 1 µM, first compound 0.316 µM
[22] = second compound 1 µM, first compound 1 µM
[23] = second compound 1 µM, first compound 3.16 µM
[24] = second compound 1 µM, first compound 10 µM
[25] = second compound 3.16 µM, first compound 0.0316 µM
[26] = second compound 3.16 µM, first compound 0.1 µM
[27] = second compound 3.16 µM, first compound 0.316 µM
[28] = second compound 3.16 µM, first compound 1 µM
[29] = second compound 3.16 µM, first compound 3.16 µM
[30] = second compound 3.16 µM, first compound 10 µM
[31] = second compound 10 µM, first compound 0.0316 µM
[32] = second compound 10 µM, first compound 0.1 µM
[33] = second compound 10 µM, first compound 0.316 µM
[34] = second compound 10 µM, first compound 1 µM
[35] = second compound 10 µM, first compound 3.16 µM
[36] = second compound 10 µM, first compound 10 µM
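Further: spheroids exposed to agents for one week before reading.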
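Wherever viability, T/C is given: 100% = DMSO vehicle control viability.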

C=CC(=O)N1CCN(c2nc(=O)n(-c3c(C)ccnc3C(C)C)c3nc(-c4c(O)cccc4F)c(F)cc23)C(C)C1 (stereo not drawn) + Cc1[nH]c2ccc(F)cc2c1-c1nc2c3cccnc3c3ncccc3c2[nH]1
IC50 (second compound 0.0316 µM): > 10 µM
IC50 (second compound 0.1 µM): > 10 µM
IC50 (second compound 0.316 µM): > 10 µM
IC50 (second compound 1 µM): > 10 µM
IC50 (second compound 3.16 µM): > 10 µM
IC50 (second compound 10 µM): > 10 µM
viability, T/C [1]: 90.3%
viability, T/C [2]: 101%
viability, T/C [3]: 97.7%
viability, T/C [4]: 94.3%
viability, T/C [5]: 124%
viability, T/C [6]: 67.2%
viability, T/C [7]: 93%
viability, T/C [8]: 106%
viability, T/C [9]: 117%
viability, T/C [10]: 102%
viability, T/C [11]: 102%
viability, T/C [12]: 74.8%
viability, T/C [13]: 80.9%
viability, T/C [14]: 96.9%
viability, T/C [15]: 106%
viability, T/C [16]: 104%
viability, T/C [17]: 100%
viability, T/C [18]: 77.9%
viability, T/C [19]: 92.9%
viability, T/C [20]: 102%
viability, T/C [21]: 107%
viability, T/C [22]: 110%
viability, T/C [23]: 128%
viability, T/C [24]: 93.2%
viability, T/C [25]: 93.9%
viability, T/C [26]: 105%
viability, T/C [27]: 98%
viability, T/C [28]: 118%
viability, T/C [29]: 121%
viability, T/C [30]: 79.4%
viability, T/C [31]: 98.2%
viability, T/C [32]: 98.3%
viability, T/C [33]: 118%
viability, T/C [34]: 129%
viability, T/C [35]: 129%
viability, T/C [36]: 101%

Cc1cccc(N(C)C(=O)C2C(O)CCN2c2nc(C)cc(C(F)(F)F)c2C#N)c1 (stereo not drawn) + Cc1[nH]c2ccc(F)cc2c1-c1nc2c3cccnc3c3ncccc3c2[nH]1
IC50 (second compound 0.0316 µM): > 10 µM
IC50 (second compound 0.1 µM): > 10 µM
IC50 (second compound 0.316 µM): > 10 µM
IC50 (second compound 1 µM): > 10 µM
IC50 (second compound 3.16 µM): > 10 µM
IC50 (second compound 10 µM): > 10 µM
viability, T/C [1]: 111%
viability, T/C [2]: 85.8%
viability, T/C [3]: 110%
viability, T/C [4]: 107%
viability, T/C [5]: 110%
viability, T/C [6]: 123%
viability, T/C [7]: 92.2%
viability, T/C [8]: 109%
viability, T/C [9]: 94.7%
viability, T/C [10]: 106%
viability, T/C [11]: 126%
viability, T/C [12]: 120%
viability, T/C [13]: 91.1%
viability, T/C [14]: 93.5%
viability, T/C [15]: 101%
viability, T/C [16]: 114%
viability, T/C [17]: 112%
viability, T/C [18]: 111%
viability, T/C [19]: 92.7%
viability, T/C [20]: 100%
viability, T/C [21]: 108%
viability, T/C [22]: 105%
viability, T/C [23]: 128%
viability, T/C [24]: 115%
viability, T/C [25]: 110%
viability, T/C [26]: 88.2%
viability, T/C [27]: 92.5%
viability, T/C [28]: 91.8%
viability, T/C [29]: 132%
viability, T/C [30]: 120%
viability, T/C [31]: 115%
viability, T/C [32]: 104%
viability, T/C [33]: 104%
viability, T/C [34]: 122%
viability, T/C [35]: 126%
viability, T/C [36]: 113%

Cn1ncnc1[C@H]1c2n[nH]c(=O)c3cc(F)cc(c23)N[C@@H]1c1ccc(F)cc1 + Cc1[nH]c2ccc(F)cc2c1-c1nc2c3cccnc3c3ncccc3c2[nH]1
IC50 (second compound 0.0316 µM): > 0.316 µM
IC50 (second compound 0.1 µM): > 0.316 µM
IC50 (second compound 0.316 µM): > 0.316 µM
IC50 (second compound 1 µM): > 0.316 µM
IC50 (second compound 3.16 µM): > 0.316 µM
IC50 (second compound 10 µM): > 0.316 µM
viability, T/C (second compound 0.0316 µM, first compound 0.000999 µM): 95.7%
viability, T/C (second compound 0.0316 µM, first compound 0.00316 µM): 86.3%
viability, T/C (second compound 0.0316 µM, first compound 0.00999 µM): 93.5%
viability, T/C [1]: 91%
viability, T/C (second compound 0.0316 µM, first compound 0.0999 µM): 73.2%
viability, T/C [3]: 59.8%
viability, T/C (second compound 0.1 µM, first compound 0.000999 µM): 89.4%
viability, T/C (second compound 0.1 µM, first compound 0.00316 µM): 106%
viability, T/C (second compound 0.1 µM, first compound 0.00999 µM): 90.9%
viability, T/C [7]: 80.4%
viability, T/C (second compound 0.1 µM, first compound 0.0999 µM): 91.1%
viability, T/C [9]: 74.4%
viability, T/C (second compound 0.316 µM, first compound 0.000999 µM): 94.3%
viability, T/C (second compound 0.316 µM, first compound 0.00316 µM): 96%
viability, T/C (second compound 0.316 µM, first compound 0.00999 µM): 83.6%
viability, T/C [13]: 88.7%
viability, T/C (second compound 0.316 µM, first compound 0.0999 µM): 70.4%
viability, T/C [15]: 73.1%
viability, T/C (second compound 1 µM, first compound 0.000999 µM): 91.7%
viability, T/C (second compound 1 µM, first compound 0.00316 µM): 93.7%
viability, T/C (second compound 1 µM, first compound 0.00999 µM): 91%
viability, T/C [19]: 74.2%
viability, T/C (second compound 1 µM, first compound 0.0999 µM): 102%
viability, T/C [21]: 73.6%
viability, T/C (second compound 3.16 µM, first compound 0.000999 µM): 93%
viability, T/C (second compound 3.16 µM, first compound 0.00316 µM): 107%
viability, T/C (second compound 3.16 µM, first compound 0.00999 µM): 83.9%
viability, T/C [25]: 86.8%
viability, T/C (second compound 3.16 µM, first compound 0.0999 µM): 70.8%
viability, T/C [27]: 69.8%
viability, T/C (second compound 10 µM, first compound 0.000999 µM): 92.7%
viability, T/C (second compound 10 µM, first compound 0.00316 µM): 80.5%
viability, T/C (second compound 10 µM, first compound 0.00999 µM): 82.6%
viability, T/C [31]: 86.1%
viability, T/C (second compound 10 µM, first compound 0.0999 µM): 77.8%
viability, T/C [33]: 68.1%

O=C(c1cc(Cc2n[nH]c(=O)c3ccccc23)ccc1F)N1CCN(C(=O)C2CC2)CC1 + Cc1[nH]c2ccc(F)cc2c1-c1nc2c3cccnc3c3ncccc3c2[nH]1
IC50 (second compound 0.0316 µM): > 10 µM
IC50 (second compound 0.1 µM): > 10 µM
IC50 (second compound 0.316 µM): > 10 µM
IC50 (second compound 1 µM): > 10 µM
IC50 (second compound 3.16 µM): > 10 µM
IC50 (second compound 10 µM): > 10 µM
viability, T/C [1]: 84.3%
viability, T/C [2]: 88.5%
viability, T/C [3]: 89.8%
viability, T/C [4]: 80.4%
viability, T/C [5]: 93%
viability, T/C [6]: 74.5%
viability, T/C [7]: 83.4%
viability, T/C [8]: 80%
viability, T/C [9]: 82%
viability, T/C [10]: 83.2%
viability, T/C [11]: 87.9%
viability, T/C [12]: 96.3%
viability, T/C [13]: 80.9%
viability, T/C [14]: 76.9%
viability, T/C [15]: 102%
viability, T/C [16]: 102%
viability, T/C [17]: 88.3%
viability, T/C [18]: 91%
viability, T/C [19]: 92.4%
viability, T/C [20]: 93%
viability, T/C [21]: 99.4%
viability, T/C [22]: 98.8%
viability, T/C [23]: 104%
viability, T/C [24]: 92.7%
viability, T/C [25]: 91.8%
viability, T/C [26]: 104%
viability, T/C [27]: 78.7%
viability, T/C [28]: 98.3%
viability, T/C [29]: 98.7%
viability, T/C [30]: 84.5%
viability, T/C [31]: 86.8%
viability, T/C [32]: 92.7%
viability, T/C [33]: 88.2%
viability, T/C [34]: 102%
viability, T/C [35]: 92.5%
viability, T/C [36]: 82.6%
